Results reported in patent publication US10696689B2, “Somatostatin modulators and uses thereof” (CRINETICS PHARMACEUTICALS, INC., priority 2018, dated 2020).

How the values were obtained:
[1] = target: human SST2 receptor (SSTR2) (Homo sapiens (Human), UniProt P30874); experiment: cAMP assay: inhibition of cAMP via human SST2 receptor in CHO-K1 cells; type: cell-based; conditions: CHO-K1 cells stably expressing human SSTR2, NKH477 stimulated
Source text: (§1) General overview: All five SSTR subtypes are Gi coupled G-protein coupled receptors (GPCRs) that lead to decreases in intracellular cyclic AMP (cAMP) when activated by an agonist. Therefore, measurement of intracellular cAMP levels can be used to assess whether compounds of the invention are agonists of SSTR subtypes (John Kelly, Troy Stevens, W. Joseph Thompson, and Roland Seifert, Current Protocols in Pharmacology, 2005, 2.2.1-2.2). One example of an intracellular cAMP assay is described below.
(§2) Four days prior to the assay, 5,000 Chinese hamster ovary cells (CHO-K1, ATCC # CCL-61) stably expressing the human somatostatin receptor subtype 2 are plated in each well of a 96-well tissue culture-treated plate in Ham's F12 growth media (ThermoFisher #10-080-CM) supplemented with 10% donor bovine serum (Gemini Bio-Products #100-506), 100 U/mL penicillin; 100 ug/mL streptomycin; 2 mM L-glutamine (Gemini Bio-Products #400-110) and 0.2 mg/mL hygromycin B (GoldBio #31282-04-9). The cells are cultured at 37° C., 5% CO2 and 95% humidity. On the day of the assay, the media is aspirated and the cells are treated with 50 μL of 1.6 μM NKH477 (Sigma # N3290) plus various dilutions of compounds of the invention in assay buffer [1× Hank's Balanced Salt Solution (ThermoFisher # SH3058802), 0.5 mM HEPES pH 7.4, 0.1% bovine serum albumin, 0.2 mM 3-Isobutyl-1-methylxanthine (IBMX, VWR #200002-790)]. The cells are incubated for 20 minutes at 37° C. (the final concentration of the compounds of the invention are typically 0-10,000 nM). The cells are treated with 50 μL of lysis buffer (HRTF cAMP kit, Cisbio). The lysate is transferred to 384-well plates and cAMP detection and visualization antibodies are added and incubated for 1-24 hours at room temperature. The time-resolved fluorescent signal is read with a Tecan M1000Pro multiplate reader. The intracellular cAMP concentrations are calculated by regression to a standard curve and are plotted vs. the concentration of the compounds of the invention and the EC50 of the compounds are calculated using standard methods. All data manipulations are in GraphPad Prism v6.

hSSTR2 vs. hSSTR4 = experiment: Selectivity for inhibition of cAMP via hSSTR2 vs. hSSTR4; type: cell-based, human
Source text: as §1, §2

Sequence of human SST2 receptor (SSTR2) (P30874 whole entry): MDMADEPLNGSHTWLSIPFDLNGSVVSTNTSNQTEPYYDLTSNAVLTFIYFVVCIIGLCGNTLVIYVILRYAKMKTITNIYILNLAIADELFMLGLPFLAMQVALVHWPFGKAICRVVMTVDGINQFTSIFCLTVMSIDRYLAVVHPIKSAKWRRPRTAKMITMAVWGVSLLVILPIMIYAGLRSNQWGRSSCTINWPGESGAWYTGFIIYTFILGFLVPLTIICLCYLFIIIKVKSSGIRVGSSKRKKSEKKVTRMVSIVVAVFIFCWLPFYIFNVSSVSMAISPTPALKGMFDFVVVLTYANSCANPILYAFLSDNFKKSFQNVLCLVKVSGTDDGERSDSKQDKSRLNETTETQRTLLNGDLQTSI

SMILES | EC50 [1] [pM] | hSST4/hSST2 (ratio) (hSSTR2 vs. hSSTR4; Table C) | hSST4/hSST2 (ratio) (hSSTR2 vs. hSSTR4; Table B)
COc1cc(F)cc2[nH]c(-c3c(N)ncc(-c4cccc(F)c4)c3N3CC[C@@H]4NCCO[C@H]4C3)nc12 [Compound 3-9, 4-[(4αS,8αS)-octahydro-1H-pyrido[3,4-b][1,4]oxazin-6-yl]-3-(6-fluoro-4-methoxy-1H-1,3-benzodiazol-2-yl)-5-(3-fluorophenyl)pyridin-2-amine] | 100 to 1000 | c (c = between 2.5 and 15;) | –
COc1cc(F)cc2nc(-c3c(C#N)ncc(-c4cc(C)cc(F)c4)c3N3CCC(N)CC3)[nH]c12 [Compound 2-2, 4-(4-aminopiperidin-1-yl)-3-(6-fluoro-4-methoxy-1H-1,3-benzodiazol-2-yl)-5-(3-fluoro-5-methylphenyl)pyridine-2-carbonitrile] | 100 to 1000 | – | –
COc1cc(C#N)cc2nc(-c3c(N(C)C)ncc(-c4cc(C)cc(F)c4)c3N3CCC(N)CC3)[nH]c12 [Compound 1-3, 2-[4-(4-aminopiperidin-1-yl)-2-(dimethylamino)-5-(3-fluoro-5-methylphenyl)pyridin-3-yl]-4-methoxy-1H-1,3-benzodiazole-6-carbonitrile] | ≥ 1000 | – | –
Cc1cc(F)cc(-c2cnc(N)c(-c3nc4c(F)cc(F)cc4[nH]3)c2N2CC[C@@H]3NCCO[C@H]3C2)c1 [Compound 3-1, 4-[(4αS,8αS)-octahydro-1H-pyrido[3,4-b][1,4]oxazin-6-yl]-3-(4,6-difluoro-1H-1,3-benzodiazol-2-yl)-5-(3-fluoro-5-methylphenyl)pyridin-2-amine] | < 100 | – | –
COc1cc(F)cc2[nH]c(-c3c(N)ncc(-c4cc(F)cc(Cl)c4)c3N3CC[C@@H]4OCCN[C@H]4C3)nc12 [Compound 3-17, 4-[(4αS,8αS)-octahydro-1H-pyrido[3,4-b][1,4]oxazin-6-yl]-5-(3-chloro-5-fluorophenyl)-3-(6-fluoro-4-methoxy-1H-1,3-benzodiazol-2-yl)pyridin-2-amine] | < 100 | c (c = between 2.5 and 15;) | –
COc1cc(C#N)cc2[nH]c(-c3c(N)ncc(-c4cc(F)cc(Cl)c4)c3N3CCC(N)CC3)nc12 [Compound 1-2, 2-[2-amino-4-(4-aminopiperidin-1-yl)-5-(3-chloro-5-fluorophenyl)pyridin-3-yl]-4-methoxy-1H-1,3-benzodiazole-6-carbonitrile] | 100 to 1000 | – | –
CNc1ncc(-c2cc(F)cc(F)c2)c(N2CC[C@@H]3NCCO[C@H]3C2)c1-c1nc2c(F)cc(F)cc2[nH]1 [Compound 3-6, 4-[(4αS,8αS)-octahydro-1H-pyrido[3,4-b][1,4]oxazin-6-yl]-3-(4,6-difluoro-1H-1,3-benzodiazol-2-yl)-5-(3,5-difluorophenyl)-N-methylpyridin-2-amine] | 100 to 1000 | – | –
COC(=O)c1ncc(-c2cc(C)cc(F)c2)c(N2CCC(N)CC2)c1-c1nc2cc(F)cc(OC)c2[nH]1 [Compound 2-1, methyl 4-(4-aminopiperidin-1-yl)-3-(6-fluoro-4-methoxy-1H-1,3-benzodiazol-2-yl)-5-(3-fluoro-5-methylphenyl)pyridine-2-carboxylate] | 100 to 1000 | – | d (d = between 1 and 2.5;)
CNc1ncc(-c2cccc(F)c2)c(N2CC[C@@H]3NCCO[C@H]3C2)c1-c1nc2c(OC)cc(C#N)cc2[nH]1 [Compound 3-12, 2-{4-[(4αS,8αS)-octahydro-1H-pyrido[3,4-b][1,4]oxazin-6-yl]-5-(3-fluorophenyl)-2-(methylamino)pyridin-3-yl}-4-methoxy-1H-1,3-benzodiazole-6-carbonitrile] | ≥ 1000 | a (a = above 50,) | –
COc1cc(F)cc(-c2cnc(N)c(-c3nc4c(F)cc(F)cc4[nH]3)c2N2CCC3OCCNC3C2)c1 (centres unmarked) [Compound 3-8, 4-[(4αS,8αS)-octahydro-1H-pyrido[3,4-b][1,4]oxazin-6-yl]-3-(4,6-difluoro-1H-1,3-benzodiazol-2-yl)-5-(3-fluoro-5-methoxyphenyl)pyridin-2-amine] | < 100 | – | –
COc1cc(C#N)cc2[nH]c(-c3c(N)ncc(-c4cc(C)cc(F)c4)c3N3CC[C@@H]4NCCO[C@H]4C3)nc12 [Compound 3-16, 2-{4-[(4αS,8αS)-octahydro-1H-pyrido[3,4-b][1,4]oxazin-6-yl]-2-amino-5-(3-fluoro-5-methylphenyl)pyridin-3-yl}-4-methoxy-1H-1,3-benzodiazole-6-carbonitrile] | < 100 | – | –
COc1cc(C#N)cc2[nH]c(-c3c(N)ncc(-c4cc(C)cc(F)c4)c3N3CCC(N)CC3)nc12 [Compound 1-1, 2-[2-amino-4-(4-aminopiperidin-1-yl)-5-(3-fluoro-5-methylphenyl)pyridin-3-yl]-4-methoxy-1H-1,3-benzodiazole-6-carbonitrile] | < 100 | – | a (a = above 50,)
CNc1ncc(-c2cc(C)cc(F)c2)c(N2CCC3OCCNC3C2)c1-c1nc2c(OC)cc(F)cc2[nH]1 (centres unmarked) [Compound 3-15, 4-[(4αS,8αS)-octahydro-1H-pyrido[3,4-b][1,4]oxazin-6-yl]-3-(6-fluoro-4-methoxy-1H-1,3-benzodiazol-2-yl)-5-(3-fluoro-5-methylphenyl)-N-methylpyridin-2-amine] | < 100 | – | –
Nc1ncc(-c2cc(F)cc(F)c2)c(N2CCC3OCCNC3C2)c1-c1nc2c(F)cc(F)cc2[nH]1 (centres unmarked) [Compound 3-2, 4-[(4αS,8αS)-octahydro-1H-pyrido[3,4-b][1,4]oxazin-6-yl]-3-(4,6-difluoro-1H-1,3-benzodiazol-2-yl)-5-(3,5-difluorophenyl)pyridin-2-amine] | 100 to 1000 | – | –
COc1cc(F)cc2[nH]c(-c3c(N)ncc(-c4cc(C)cc(F)c4)c3N3CC[C@@H]4NCCO[C@H]4C3)nc12 [Compound 3-14, 4-[(4αS, 8αS)-octahydro-1H-pyrido[3,4-b][1,4]oxazin-6-yl]-3-(6-fluoro-4-methoxy-1H-1,3-benzodiazol-2-yl)-5-(3-fluoro-5-methylphenyl)pyridin-2-amine] | < 100 | – | –
Nc1ncc(-c2cc(F)cc(Cl)c2)c(N2CC[C@@H]3NCCO[C@H]3C2)c1-c1nc2c(F)cc(F)cc2[nH]1 [Compound 3-7, 4-[(4αS,8αS)-octahydro-1H-pyrido[3,4-b][1,4]oxazin-6-yl]-5-(3-chloro-5-fluorophenyl)-3-(4,6-difluoro-1H-1,3-benzodiazol-2-yl)pyridin-2-amine] | < 100 | – | –
COc1cc(F)cc2nc(-c3c(C(N)=O)ncc(-c4cc(C)cc(F)c4)c3N3CCC(N)CC3)[nH]c12 [Compound 2-3, 4-(4-aminopiperidin-1-yl)-3-(6-fluoro-4-methoxy-1H-1,3-benzodiazol-2-yl)-5-(3-fluoro-5-methylphenyl)pyridine-2-carboxamide] | 100 to 1000 | – | –
CNc1ncc(-c2cc(F)cc(Cl)c2)c(N2CC[C@@H]3NCCO[C@H]3C2)c1-c1nc2c(OC)cc(F)cc2[nH]1 [Compound 3-13, 4-[(4αS,8αS)-octahydro-1H-pyrido[3,4-b][1,4]oxazin-6-yl]-5-(3-chloro-5-fluorophenyl)-3-(6-fluoro-4-methoxy-1H-1,3-benzodiazol-2-yl)-N-methylpyridin-2-amine] | 100 to 1000 | a (a = above 50,) | –
CNc1ncc(-c2cccc(F)c2)c(N2CC[C@@H]3NCCO[C@H]3C2)c1-c1nc2c(OC)cc(F)cc2[nH]1 [Compound 3-10, 4-[(4αS,8αS)-octahydro-1H-pyrido[3,4-b][1,4]oxazin-6-yl]-3-(6-fluoro-4-methoxy-1H-1,3-benzodiazol-2-yl)-5-(3-fluorophenyl)-N-methylpyridin-2-amine] | 100 to 1000 | a (a = above 50,) | –
